Test results taken from patent US8778881B2 (priority 2004, dated 2014).
Numbered stars: 1 amine (or outer) side, 2 acyl side, 3 side chain; on linkers, the order of the positions; unused ones are H or OH. Bridge positions count the residues as written; N and C are the ends. Square brackets hold non-standard residues; d marks the D form. Peptide text beside a SMILES is read from it. * marks the point of attachment. Orn(Me) = CN(CCC[C@H](N[*:1])C(=O)[*:2])[*:3]; Ala(4-thiazolyl) = N[C@@H](Cc1cscn1)C(=O)O; Ala(2-furyl) = N[C@@H](Cc1ccco1)C(=O)O; Orn(iPr) = CC(C)NCCC[C@H](N)C(=O)O; X1 = CCNCCC[C@H](N[*:1])C(=O)[*:2]; 2Pal = N[C@@H](Cc1ccccn1)C(=O)O; 3Pal = N[C@@H](Cc1cccnc1)C(=O)O; 2Thi = N[C@@H](Cc1cccs1)C(=O)O; 3Thi = N[C@@H](Cc1ccsc1)C(=O)O; Aad = N[C@@H](CCCC(=O)O)C(=O)O; NHCH(CH2OH)2 = OCC(CO)N*; Orn = NCCC[C@H](N)C(=O)O; Dab = NCC[C@H](N)C(=O)O; NHCH2CH2OH = OCCN*; X4 = OCCOCCN*; NHOH = ON*

molecular target: T1, human oxytocin (hOT) receptor (Homo sapiens, UniProt P30559); assay: luciferase-based transcriptional reporter assay expressing the human oxytocin (hOT) receptor, for selectivity; assay type: cell-based; settings: not given
T1 construct: expressed in transfected cells
T1 sequence (P30559 1-389): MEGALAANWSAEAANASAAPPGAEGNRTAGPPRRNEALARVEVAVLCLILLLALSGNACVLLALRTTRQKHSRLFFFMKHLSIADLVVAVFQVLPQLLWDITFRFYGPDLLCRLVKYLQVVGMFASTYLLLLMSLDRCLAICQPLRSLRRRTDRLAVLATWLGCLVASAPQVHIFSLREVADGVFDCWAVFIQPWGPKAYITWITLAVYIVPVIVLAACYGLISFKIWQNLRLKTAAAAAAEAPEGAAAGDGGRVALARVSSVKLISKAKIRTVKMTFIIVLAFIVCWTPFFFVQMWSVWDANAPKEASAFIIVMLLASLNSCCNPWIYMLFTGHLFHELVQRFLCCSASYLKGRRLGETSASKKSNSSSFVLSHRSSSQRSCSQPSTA
Procedure: Agonist activity of compounds on the hV1a receptor was determined in a transcriptional reporter assay by transiently transfecting a hV1a receptor expression DNA into HEK-293 cells in concert with a reporter DNA containing intracellular calcium responsive promoter elements regulating expression of firefly luciferase. See Boss, V., Talpade, D. J., Murphy, T. J. J. Biol. Chem. 1996, May 3; 271(18), 10429-10432 for further guidance on this assay. […] To determine selectivity, compounds were tested in luciferase-based transcriptional reporter assays expressing the human oxytocin (hOT) receptor. Assays for other receptors (hV2, hV1b, rat V1a and rat V2) were also conducted.
The EC50 value given is the geometric mean expressed in nanomol/L (nM). Selectivity values are given as EC50 ratios.

| Structure (SMILES) | selectivity hOT/hV1a (class symbol) |
| --- | --- |
| CC[C@H](C)[C@@H]1NC(=O)[C@H](Cc2ccccc2)NC(=O)[C@@H](N)CSSC[C@@H](C(=O)N2CCC[C@H]2C(=O)N[C@@H](CCCN)C(=O)NCC(N)=O)NC(=O)[C@H](CC(N)=O)NC(=O)[C@H](CCCC(N)=O)NC1=O [Compound 9] (H-CFI[Aad](NH2)NCP[Orn]G-NH2; disulfide 1-6) | + (key: +: selective hV1a receptor agonist; EC50 hOT/hV1a ratio not determined due to very low agonist efficacy (<30% compared to AVP) at the hOT receptor) |
| CC[C@H](C)[C@@H]1NC(=O)[C@H](Cc2ccccn2)NC(=O)[C@@H](N)CSSC[C@@H](C(=O)N2CCC[C@H]2C(=O)N[C@@H](CCN)C(=O)NCC(N)=O)NC(=O)[C@H](CC(N)=O)NC(=O)[C@H](CCC(N)=O)NC1=O [Compound 17] (H-C[2Pal]IQNCP[Dab]G-NH2; disulfide 1-6) | + (key: +: selective hV1a receptor agonist; EC50 hOT/hV1a ratio not determined due to very low agonist efficacy (<30% compared to AVP) at the hOT receptor) |

same assay, conditions: agonist efficacy at the hOT receptor compared to AVP; ratio not determined

| Structure (SMILES) | selectivity hOT/hV1a (class symbol) |
| --- | --- |
| CC[C@H](C)[C@@H]1NC(=O)[C@H](Cc2cccs2)NC(=O)[C@@H](N)CSSC[C@@H](C(=O)N2CCC[C@H]2C(=O)N[C@@H](CCCNC(C)C)C(=O)NCC(N)=O)NC(=O)[C@H](CC(N)=O)NC(=O)[C@H](CC(N)=O)NC1=O [Compound 43] (H-C[2Thi]INNCP[Orn(iPr)]G-NH2; disulfide 1-6; N-terminus and C-terminus assumed) | + (selective hV1a receptor agonist; EC50 hOT/hV1a ratio not determined due to very low agonist efficacy (<30% compared to AVP) at the hOT receptor) |
| CC[C@H](C)[C@@H]1NC(=O)[C@H](Cc2ccccc2)NC(=O)[C@@H](N)CSSC[C@@H](C(=O)N2CCC[C@H]2C(=O)N[C@@H](CCCN)C(=O)NCC(N)=O)NC(=O)[C@H](CC(N)=O)NC(=O)[C@H](CC(=O)NC(CO)CO)NC1=O [Compound 27] (H-CFID(NHCH(CH2OH)2)NCP[Orn]G-NH2; disulfide 1-6; N-terminus and C-terminus assumed) | + (selective hV1a receptor agonist; EC50 hOT/hV1a ratio not determined due to very low agonist efficacy (<30% compared to AVP) at the hOT receptor) |
| CC[C@H](C)[C@@H]1NC(=O)[C@H](Cc2ccco2)NC(=O)[C@@H](N)CSSC[C@@H](C(=O)N2CCC[C@H]2C(=O)N[C@@H](CCN)C(=O)NCC(N)=O)NC(=O)[C@H](CC(N)=O)NC(=O)[C@H](CC(N)=O)NC1=O [Compound 44] (H-C[Ala(2-furyl)]INNCP[Dab]G-NH2; disulfide 1-6; N-terminus and C-terminus assumed) | + (selective hV1a receptor agonist; EC50 hOT/hV1a ratio not determined due to very low agonist efficacy (<30% compared to AVP) at the hOT receptor) |
| CC[C@H](C)[C@@H]1NC(=O)[C@H](Cc2cscn2)NC(=O)[C@@H](N)CSSC[C@@H](C(=O)N2CCC[C@H]2C(=O)N[C@@H](CCN)C(=O)NCC(N)=O)NC(=O)[C@H](CC(N)=O)NC(=O)[C@H](CCC(N)=O)NC1=O [Compound 13] (H-C[Ala(4-thiazolyl)]IQNCP[Dab]G-NH2; disulfide 1-6; N-terminus and C-terminus assumed) | + (selective hV1a receptor agonist; EC50 hOT/hV1a ratio not determined due to very low agonist efficacy (<30% compared to AVP) at the hOT receptor) |
| CC[C@H](C)[C@@H]1NC(=O)[C@H](Cc2ccccc2)NC(=O)[C@@H](N)CSSC[C@@H](C(=O)N2CCC[C@H]2C(=O)N[C@@H](CCCN)C(=O)NCC(N)=O)NC(=O)[C@H](CC(N)=O)NC(=O)[C@H](CC(=O)NCCO)NC1=O [Compound 23] (H-CFID(NHCH2CH2OH)NCP[Orn]G-NH2; disulfide 1-6; N-terminus and C-terminus assumed) | + (selective hV1a receptor agonist; EC50 hOT/hV1a ratio not determined due to very low agonist efficacy (<30% compared to AVP) at the hOT receptor) |
| CC[C@H](C)[C@@H]1NC(=O)[C@H](Cc2ccccc2)NC(=O)[C@@H](N)CSSC[C@@H](C(=O)N2CCC[C@H]2C(=O)N[C@@H](CCCN)C(=O)NCC(N)=O)NC(=O)[C@H](CC(N)=O)NC(=O)[C@H](CCC(=O)NO)NC1=O [Compound 16] (H-CFIE(NHOH)NCP[Orn]G-NH2; disulfide 1-6; N-terminus and C-terminus assumed) | + (selective hV1a receptor agonist; EC50 hOT/hV1a ratio not determined due to very low agonist efficacy (<30% compared to AVP) at the hOT receptor) |
| CC[C@H](C)[C@@H]1NC(=O)[C@H](Cc2ccsc2)NC(=O)[C@@H](N)CSSC[C@@H](C(=O)N2CCC[C@H]2C(=O)N[C@@H](CCN)C(=O)NCC(N)=O)NC(=O)[C@H](CC(N)=O)NC(=O)[C@H](CC(N)=O)NC1=O [Compound 37] (H-C[3Thi]INNCP[Dab]G-NH2; disulfide 1-6; N-terminus and C-terminus assumed) | + (selective hV1a receptor agonist; EC50 hOT/hV1a ratio not determined due to very low agonist efficacy (<30% compared to AVP) at the hOT receptor) |
| CCNC(=O)CC[C@@H]1NC(=O)[C@H]([C@@H](C)CC)NC(=O)[C@H](Cc2ccccc2)NC(=O)[C@@H](N)CSSC[C@@H](C(=O)N2CCC[C@H]2C(=O)N[C@@H](CCCN)C(=O)NCC(N)=O)NC(=O)[C@H](CC(N)=O)NC1=O [Compound 20] (H-CFIE(NHEt)NCP[Orn]G-NH2; disulfide 1-6; N-terminus and C-terminus assumed) | + (selective hV1a receptor agonist; EC50 hOT/hV1a ratio not determined due to very low agonist efficacy (<30% compared to AVP) at the hOT receptor) |
| NCCCC[C@H](NC(=O)[C@@H]1CCCN1C(=O)[C@@H]1CSSC[C@H](NC(=O)CNC(=O)CNC(=O)CN)C(=O)N[C@@H](Cc2ccc(O)cc2)C(=O)N[C@@H](Cc2ccccc2)C(=O)N[C@@H](CCC(N)=O)C(=O)N[C@@H](CC(N)=O)C(=O)N1)C(=O)NCC(N)=O [terlipressin, reference compound] (H-GGGCYFQNCPKG-NH2; disulfide 4-9) | + (selective hV1a receptor agonist; EC50 hOT/hV1a ratio not determined due to very low agonist efficacy (<30% compared to AVP) at the hOT receptor) |
| CCNCCC[C@H](NC(=O)[C@@H]1CCCN1C(=O)[C@@H]1CSSC[C@H](N)C(=O)N[C@@H](Cc2ccccc2)C(=O)N[C@@H]([C@@H](C)CC)C(=O)N[C@@H](CC(N)=O)C(=O)N[C@@H](CC(N)=O)C(=O)N1)C(=O)NCC(N)=O [Compound 47] (H-CFINNCP[X1]G-NH2; disulfide 1-6; N-terminus and C-terminus assumed) | + (selective hV1a receptor agonist; EC50 hOT/hV1a ratio not determined due to very low agonist efficacy (<30% compared to AVP) at the hOT receptor) |
| CC[C@H](C)[C@@H]1NC(=O)[C@H](Cc2ccccc2)NC(=O)[C@@H](N)CSSC[C@@H](C(=O)N2CCC[C@H]2C(=O)N[C@@H](CCCN)C(=O)NCC(N)=O)NC(=O)[C@H](CC(N)=O)NC(=O)[C@H](CC(=O)NCCOCCO)NC1=O [Compound 29] (H-CFID(X4)NCP[Orn]G-NH2; disulfide 1-6; N-terminus and C-terminus assumed) | + (selective hV1a receptor agonist; EC50 hOT/hV1a ratio not determined due to very low agonist efficacy (<30% compared to AVP) at the hOT receptor) |
| CC[C@H](C)[C@@H]1NC(=O)[C@H](Cc2ccccc2)NC(=O)[C@@H](N)CSSC[C@@H](C(=O)N2CCC[C@H]2C(=O)N[C@@H](CCCNC)C(=O)NCC(N)=O)NC(=O)[C@H](CC(N)=O)NC(=O)[C@H](CC(N)=O)NC1=O [Compound 46] (H-CFINNCP[Orn(Me)]G-NH2; disulfide 1-6; N-terminus and C-terminus assumed) | + (selective hV1a receptor agonist; EC50 hOT/hV1a ratio not determined due to very low agonist efficacy (<30% compared to AVP) at the hOT receptor) |
| CC[C@H](C)[C@@H]1NC(=O)[C@H](Cc2cccnc2)NC(=O)[C@@H](N)CSSC[C@@H](C(=O)N2CCC[C@H]2C(=O)N[C@@H](CCN)C(=O)NCC(N)=O)NC(=O)[C@H](CC(N)=O)NC(=O)[C@H](CCC(N)=O)NC1=O [Compound 18] (H-C[3Pal]IQNCP[Dab]G-NH2; disulfide 1-6; N-terminus and C-terminus assumed) | + (selective hV1a receptor agonist; EC50 hOT/hV1a ratio not determined due to very low agonist efficacy (<30% compared to AVP) at the hOT receptor) |
| CC[C@H](C)[C@@H]1NC(=O)[C@H](Cc2ccccc2)NC(=O)[C@@H](N)CSSC[C@@H](C(=O)N2CCC[C@H]2C(=O)N[C@@H](CCCN)C(=O)NCC(N)=O)NC(=O)[C@H](CC(N)=O)NC(=O)[C@H](CC(N)=O)NC1=O [Compound 30] (H-CFINNCP[Orn]G-NH2; disulfide 1-6; N-terminus and C-terminus assumed) | + (selective hV1a receptor agonist; EC50 hOT/hV1a ratio not determined due to very low agonist efficacy (<30% compared to AVP) at the hOT receptor) |
| CCNC(=O)C[C@@H]1NC(=O)[C@H]([C@@H](C)CC)NC(=O)[C@H](Cc2ccccc2)NC(=O)[C@@H](N)CSSC[C@@H](C(=O)N2CCC[C@H]2C(=O)N[C@@H](CCCN)C(=O)NCC(N)=O)NC(=O)[C@H](CC(N)=O)NC1=O [Compound 48] (H-CFID(NHEt)NCP[Orn]G-NH2; disulfide 1-6; N-terminus and C-terminus assumed) | + (selective hV1a receptor agonist; EC50 hOT/hV1a ratio not determined due to very low agonist efficacy (<30% compared to AVP) at the hOT receptor) |
